What was measured:
PatAB (PatA^WTB^WT) [1] = target: T1, PatAB (PatA^WTB^WT) (Streptococcus pneumoniae, UniProt A0ACD7PU88+Q8DN70); experiment: ATPase inhibition, malachite green Pi assay; type: biochemical
T1 construct: gene ABC-NP; full length; N-terminal His6-PatA and C-terminal PatB-His10, tags kept; coexpressed in Lactococcus lactis NZ9000 ΔlmrA ΔlmrCD

PatAB (PatA^WTB^WT) [2] = target: T2, PatAB (PatA^WTB^WT) (Streptococcus pneumoniae, UniProt A0ACD7PU88+Q8DN70, Q8DN70:Q521A); experiment: biochemical
T2 construct: gene ABC-NP
Excerpt: ATPase inhibition, malachite green Pi assay on PatAB (PatA^WTB^WT)

PatAB (PatA^WTB^WT) [3] = target: T1, PatAB (PatA^WTB^WT); experiment: fluorescence anisotropy titration; type: binding
PatAB (PatA^WTB^WT) [4] = target: T1, PatAB (PatA^WTB^WT); experiment: competition with EMA photolabelling, in-gel fluorescence; type: binding; settings: 20-fold excess over EMA, membrane vesicles; also transported substrate (efflux from L. lactis cells)
[5] = system: Nc1nc2c(ncn2[C@@H]2O[C@H](COP(=O)(O)OP(=O)(O)OP(=O)(O)O)[C@@H](O)[C@H]2O)c(=O)[nH]1; experiment: GTPase, malachite green Pi assay; type: biochemical, Streptococcus pneumoniae; settings: 10 mM MgCl2, pH 7.0, 30 °C, DDM, no drug

Row | Molecule | IC50 (PatAB (PatA^WTB^WT) [1]) | IC50 (PatAB (PatA^WTB^WT) [2]) | Kd (PatAB (PatA^WTB^WT) [3]) | % reduction in EMA incorporation (PatAB (PatA^WTB^WT) [4]) | Km [5]
1 | CO[C@@H]1[C@@H](OC(=O)c2ccc(C)[nH]2)[C@@H](O)[C@H](Oc2ccc3c(O)c(NC(=O)c4c[nH]c(C(=O)Nc5c(O)c6ccc(O[C@@H]7OC(C)(C)[C@H](OC)[C@@H](OC(=O)c8ccc(C)[nH]8)[C@H]7O)c(C)c6oc5=O)c4C)c(=O)oc3c2C)OC1(C)C [Coumermycin A1] | 3.7 ± 0.4 µM | 3 ± 1 µM | – | – | –
2 | CC[n+]1c(-c2ccccc2)c2cc(N)ccc2c2ccc(N)cc21 [Ethidium] | 7.1 ± 1.8 µM | 6.5 ± 1.7 µM | 0.103 µM | – | –
3 | CO[C@@H]1[C@@H](OC(N)=O)[C@@H](O)[C@H](Oc2ccc3c(O)c(NC(=O)c4ccc(O)c(CC=C(C)C)c4)c(=O)oc3c2C)OC1(C)C [Novobiocin] | 4.6 ± 1.7 µM | 9.7 ± 2 µM | – | – | –
4 | CC[N+](C)(CC)CCC[n+]1c(-c2ccccc2)c2cc(N)ccc2c2ccc(N)cc21 [Propidium] | 0.9 ± 0.6 µM | 0.9 ± 0.8 µM | – | – | –
5 | COc1cccc2c1C(=O)c1c(O)c3c(c(O)c1C2=O)C[C@@](O)(C(C)=O)C[C@@H]3O[C@H]1C[C@H](N)[C@H](O)[C@H](C)O1 [daunomycin] | – | – | – | 75% | –
6 | PatAB (PatA^WTB^WT) (Streptococcus pneumoniae) | – | – | – | – | 1100 ± 400 µM

From PMC9541285, “Drug‐dependent inhibition of nucleotide hydrolysis in the heterodimeric ABC multidrug transporter PatAB from Streptococcus pneumoniae” (The Febs Journal, 2022)
